Calls of active or inactive are those of the source. The rule behind the calls is not given here.
Columns and labels:
Drosophila melanogaster [1] = assay: Insecticidal activity against Drosophila melanogaster larvae fed with compound incorporated diet assessed as mortality at 5 to 100 ug/ml after 72 hr by not choice test (reference value: 0%); format: functional, organism-based
Spodoptera frugiperda [2] = assay: Growth inhibitory activity against po dosed Spodoptera frugiperda (fall armyworm) larvae assessed as promotion of apolysis to fifth instar with ecdysis inhibition at 5 to 20 ug/ml; format: functional, organism-based
Spodoptera frugiperda [3] = assay: Growth inhibitory activity against Spodoptera frugiperda (fall armyworm) larvae fed with compound containing diet assessed as growth index at 35 ug/ml (reference value: 0.95 +/-0.02 no_unit); format: functional
Spodoptera frugiperda [4] = assay: Growth inhibitory activity against Spodoptera frugiperda (fall armyworm) larvae fed with compound containing diet assessed as growth index at 10 ug/ml (reference value: 0.95 +/-0.02 no_unit); format: functional
Spodoptera frugiperda [5] = assay: Growth inhibitory activity against Spodoptera frugiperda (fall armyworm) larvae fed with compound containing diet assessed as growth index at 25 ug/ml (reference value: 0.95 +/-0.02 no_unit); format: functional
Spodoptera frugiperda [6] = assay: Growth inhibitory activity against Spodoptera frugiperda (fall armyworm) larvae fed with compound containing diet assessed as relative growth index at 50 ug/ml (reference value: 1.0 no_unit); format: functional
Drosophila melanogaster [7] = assay: Insecticidal activity against Drosophila melanogaster larvae fed with compound incorporated diet assessed as mortality at 20 ug/ml after 72 hr by not choice test (reference value: 0%); format: functional
Spodoptera frugiperda [8] = assay: Growth inhibitory activity against Spodoptera frugiperda (fall armyworm) larvae fed with compound containing diet assessed as growth index at 50 ug/ml (reference value: 0.95 +/-0.02 no_unit); format: functional
Spodoptera frugiperda [9] = assay: Growth inhibitory activity against Spodoptera frugiperda (fall armyworm) larvae fed with compound containing diet assessed as relative growth index at 10 ug/ml (reference value: 1.0 no_unit); format: functional
Spodoptera frugiperda [10] = assay: Growth inhibitory activity against Spodoptera frugiperda (fall armyworm) larvae fed with compound containing diet assessed as relative growth index at 35 ug/ml (reference value: 1.0 no_unit); format: functional
Spodoptera frugiperda [11] = assay: Growth inhibitory activity against Spodoptera frugiperda (fall armyworm) larvae fed with compound containing diet assessed as relative growth index at 25 ug/ml (reference value: 1.0 no_unit); format: functional
Drosophila melanogaster [12] = assay: Insecticidal activity against Drosophila melanogaster larvae fed with compound incorporated diet assessed as mortality at 100 ug/ml after 72 hr by not choice test (reference value: 0%); format: functional
Spodoptera frugiperda [13] = assay: Growth inhibitory activity against po dosed fourth-instar larvae of Spodoptera frugiperda (fall armyworm) assessed as proportion of prothetely appearance of precocious pupal structure in larvae after 48 to 72 hr; format: functional; design: scale not given: the % may be the effect or the level left
Drosophila melanogaster [14] = assay: Insecticidal activity against Drosophila melanogaster larvae fed with compound incorporated diet assessed as mortality at 50 ug/ml after 72 hr by not choice test (reference value: 0%); format: functional
Spodoptera frugiperda [15] = assay: Growth inhibitory activity against Spodoptera frugiperda (fall armyworm) larvae fed with compound containing diet assessed as reduction in adult emergence at 20 ug/ml; format: functional
Spodoptera frugiperda [16] = assay: Growth inhibitory activity against Spodoptera frugiperda (fall armyworm) larvae fed with compound containing diet assessed as delay in time to pupation; format: functional, organism-based
Spodoptera frugiperda [17] = assay: Growth inhibitory activity against first-instar larval stage of Spodoptera frugiperda (fall armyworm) fed with compound incorporated diet assessed as length gained at 50 ug/ml after 7 days (reference value: 100%); format: functional
Spodoptera frugiperda [18] = assay: Insecticidal activity against first-instar larval stage of Spodoptera frugiperda (fall armyworm) fed with compound incorporated diet assessed as mortality at 10 ug/ml after 7 days (reference value: 5.6%); format: functional; conditions: 168 h
Spodoptera frugiperda [19] = assay: Insecticidal activity against first-instar larval stage of Spodoptera frugiperda (fall armyworm) fed with compound incorporated diet assessed as mortality at 50 ug/ml after 7 days (reference value: 5.6%); format: functional; conditions: 168 h
Spodoptera frugiperda [20] = assay: Growth inhibitory activity against first-instar larval stage of Spodoptera frugiperda (fall armyworm) fed with compound incorporated diet assessed as weight gained at 50 ug/ml after 21 days (reference value: 100%); format: functional
Spodoptera frugiperda [21] = assay: Growth inhibitory activity against first-instar larval stage of Spodoptera frugiperda (fall armyworm) fed with compound incorporated diet assessed as length gained at 10 ug/ml after 7 days (reference value: 100%); format: functional
Spodoptera frugiperda [22] = assay: Insecticidal activity against first-instar larval stage of Spodoptera frugiperda (fall armyworm) fed with compound incorporated diet assessed as mortality at 50 ug/ml after 21 days (reference value: 5.6%); format: functional; conditions: 504 h
Spodoptera frugiperda [23] = assay: Growth inhibitory activity against first-instar larval stage of Spodoptera frugiperda (fall armyworm) fed with compound incorporated diet assessed as length gained at 25 ug/ml after 21 days (reference value: 100%); format: functional; design: scale not given: the % may be the effect or the level left
Spodoptera frugiperda [24] = assay: Growth inhibitory activity against first-instar larval stage of Spodoptera frugiperda (fall armyworm) fed with compound incorporated diet assessed as length gained at 25 ug/ml after 7 days (reference value: 100%); format: functional; design: scale not given: the % may be the effect or the level left
Spodoptera frugiperda [25] = assay: Growth inhibitory activity against Spodoptera frugiperda (fall armyworm) larvae fed with compound containing diet assessed as reduction in adult emergence at 35 ug/ml; format: functional
Spodoptera frugiperda [26] = assay: Growth inhibitory activity against first-instar larval stage of Spodoptera frugiperda (fall armyworm) fed with compound incorporated diet assessed as weight gained at 25 ug/ml after 7 days (reference value: 100%); format: functional; design: scale not given: the % may be the effect or the level left
Spodoptera frugiperda [27] = assay: Growth inhibitory activity against first-instar larval stage of Spodoptera frugiperda (fall armyworm) fed with compound incorporated diet assessed as length gained at 10 ug/ml after 21 days (reference value: 100%); format: functional
Spodoptera frugiperda [28] = assay: Growth inhibitory activity against first-instar larval stage of Spodoptera frugiperda (fall armyworm) fed with compound incorporated diet assessed as length gained at 50 ug/ml after 21 days (reference value: 100%); format: functional
Spodoptera frugiperda [29] = assay: Growth inhibitory activity against first-instar larval stage of Spodoptera frugiperda (fall armyworm) fed with compound incorporated diet assessed as weight gained at 10 ug/ml after 7 days (reference value: 100%); format: functional; design: scale not given: the % may be the effect or the level left
Spodoptera frugiperda [30] = assay: Insecticidal activity against first-instar larval stage of Spodoptera frugiperda (fall armyworm) fed with compound incorporated diet assessed as mortality at 25 ug/ml after 21 days (reference value: 5.6%); format: functional; conditions: 504 h
Spodoptera frugiperda [31] = assay: Growth inhibitory activity against first-instar larval stage of Spodoptera frugiperda (fall armyworm) fed with compound incorporated diet assessed as weight gained at 50 ug/ml after 7 days (reference value: 100%); format: functional; design: scale not given: the % may be the effect or the level left
Spodoptera frugiperda [32] = assay: Insecticidal activity against first-instar larval stage of Spodoptera frugiperda (fall armyworm) fed with compound incorporated diet assessed as mortality at 10 ug/ml after 21 days (reference value: 5.6%); format: functional; conditions: 504 h
Spodoptera frugiperda [33] = assay: Growth inhibitory activity against first-instar larval stage of Spodoptera frugiperda (fall armyworm) fed with compound incorporated diet assessed as weight gained at 10 ug/ml after 21 days (reference value: 100%); format: functional
Spodoptera frugiperda [34] = assay: Growth inhibitory activity against first-instar larval stage of Spodoptera frugiperda (fall armyworm) fed with compound incorporated diet assessed as weight gained at 25 ug/ml after 21 days (reference value: 100%); format: functional; design: scale not given: the % may be the effect or the level left
Spodoptera frugiperda [35] = assay: Growth inhibitory activity against Spodoptera frugiperda (fall armyworm) larvae fed with compound containing diet assessed as delay in adult emergence; format: functional, organism-based
Spodoptera frugiperda [36] = assay: Acute toxicity against last larval stage of Spodoptera frugiperda (fall armyworm) assessed as survival at 25 ug/ml applied topically onto abdomen measured after 24 hr (reference value: 98.8 +/-3.5%); format: functional
Spodoptera frugiperda [37] = assay: Insecticidal activity against first-instar larval stage of Spodoptera frugiperda (fall armyworm) fed with compound incorporated diet assessed as mortality at 25 ug/ml after 7 days (reference value: 5.6%); format: functional; conditions: 168 h
Spodoptera frugiperda [38] = assay: Acute toxicity against last larval stage of Spodoptera frugiperda (fall armyworm) assessed as survival at 10 ug/ml applied topically onto abdomen measured after 24 hr (reference value: 98.8 +/-3.5%); format: functional

C=C(C)[C@@H]1CC[C@]2(C)CC[C@]3(C)[C@H](CC[C@@H]4[C@@]5(C)CC[C@H](O)C(C)(C)[C@@H]5CC[C@]43C)[C@@H]12
mortality (Drosophila melanogaster [1]): inactive

CC1OC2=C(C(=O)c3ccccc3C2=O)C1(C)C (stereo unspecified)
mortality (Drosophila melanogaster [1]): inactive

CC[C@H](CC[C@@H](C)[C@H]1CC[C@H]2[C@@H]3CC=C4C[C@@H](O)CC[C@]4(C)[C@H]3CC[C@]12C)C(C)C
mortality (Drosophila melanogaster [1]): inactive

C[C@@H]1O[C@@H](O[C@@H]2[C@@H](O)[C@H](OCCc3ccc(O)c(O)c3)O[C@H](CO)[C@H]2OC(=O)/C=C/c2ccc(O)c(O)c2)[C@H](O)[C@H](O)[C@H]1O [ACETOSIDE]
Activity (Spodoptera frugiperda [2]): Active
Growth_index (Spodoptera frugiperda [3]): 0.09
Growth_index (Spodoptera frugiperda [4]): 0.66
Growth_index (Spodoptera frugiperda [5]): 0.41
Growth_index (Spodoptera frugiperda [6]): 0.1
mortality at 20 µg/mL (Drosophila melanogaster [7]): 92%
Growth_index (Spodoptera frugiperda [8]): 0.07
Growth_index (Spodoptera frugiperda [9]): 0.67
Growth_index (Spodoptera frugiperda [10]): 0.15
Growth_index (Spodoptera frugiperda [11]): 0.45
mortality at 100 µg/mL (Drosophila melanogaster [12]): 100%
Activity (Spodoptera frugiperda [13]): 30%
mortality at 50 µg/mL (Drosophila melanogaster [14]): 100%

CC(=O)O[C@@H]1C[C@H]2C(C)(C)C(=O)C=C[C@]2(C)[C@H]2CC[C@@]3(C)[C@H](c4ccoc4)OC(=O)[C@H]4O[C@]43[C@@]21C [GEDUNIN]
Activity (Spodoptera frugiperda [2]): Active
inhibition at 20 µg/mL (Spodoptera frugiperda [15]): 0%
Growth_index (Spodoptera frugiperda [4]): 0.77
inhibition (Spodoptera frugiperda [16]): Active
Growth_index (Spodoptera frugiperda [5]): 0.51
Growth_index (Spodoptera frugiperda [6]): 0.11
Length gain relative to control (Spodoptera frugiperda [17]): 16.7%
mortality at 10 µg/mL (Spodoptera frugiperda [18]): 33%
mortality at 50 µg/mL (Spodoptera frugiperda [19]): 70.8%
mortality at 20 µg/mL (Drosophila melanogaster [7]): 87.1%
Weight gain relative to control (Spodoptera frugiperda [20]): 2.05%
Larval length gained (% of control) (Spodoptera frugiperda [21]): 32.5%
mortality at 50 µg/mL (Spodoptera frugiperda [22]): 98.7%
Activity (Spodoptera frugiperda [23]): 0%
Growth_index (Spodoptera frugiperda [8]): 0.1
Activity (Spodoptera frugiperda [24]): 20%
inhibition at 35 µg/mL (Spodoptera frugiperda [25]): 0%
Growth_index (Spodoptera frugiperda [9]): 0.71
Activity (Spodoptera frugiperda [26]): 3.3%
Growth_index (Spodoptera frugiperda [11]): 0.55
Length gained relative to control (Spodoptera frugiperda [27]): 0%
Length gained (% of control) (Spodoptera frugiperda [28]): 11.6%
mortality at 100 µg/mL (Drosophila melanogaster [12]): 11%
Activity (Spodoptera frugiperda [29]): 7.1%
Activity (Spodoptera frugiperda [13]): 30%
mortality at 25 µg/mL (Spodoptera frugiperda [30]): 100%
Activity (Spodoptera frugiperda [31]): 1.9%
mortality at 10 µg/mL (Spodoptera frugiperda [32]): 100%
Weight gain (% of control) (Spodoptera frugiperda [33]): 0%
Activity (Spodoptera frugiperda [34]): 0%
inhibition (Spodoptera frugiperda [35]): Active
Activity (Spodoptera frugiperda [36]): 14.1%
mortality at 25 µg/mL (Spodoptera frugiperda [37]): 38%
mortality at 50 µg/mL (Drosophila melanogaster [14]): 100%
Activity (Spodoptera frugiperda [38]): 54.7%

Source: ChEMBL document CHEMBL3046322, “Insect growth regulatory effects by diterpenes from Calceolaria talcana Grau & Ehrhart (Calceolariaceae: Scrophulariaceae) against Spodoptera frugiperda and Drosophila melanogaster” (2013)
